Assay results: PubChem BioAssay AID2060511 (Molecular Pharmacology Branch, DTP, NCI, 2025)

Test system: 422866-222-R5-J1-PDC spheroids with HUVEC/MSC, viability
Experiment: Anticancer human tumor 422866-222-R5-J1-PDC patient-derived pancreatic adenocarcinoma cell line growth inhibition [GQUAD]
Conditions: for IC50: curve of first compound; for viability, T/C: stronger effect = lower value
From the text: DNA G-quadruplex Stabilizer Agents in Combinations in Complex Spheroids
A high-throughput screen of multi-cell type tumor spheroids was designed to identify active combinations of DNA G-quadruplex stabilizer agents and targeted small molecules. Complex spheroids include a stromal component modeled by human endothelial cells (HUVEC) and fibroblasts modeled by human mesenchymal stem cells (MSCs). The concentration ranges selected for each drug and investigational agent were based upon clinically achievable concentrations if the clinical Cmax of the agent was known.
Compounds. The drugs and investigational agents: pidnarulex (CX-5461; NSC782164), APTO-253 (NSC789042), BRACO-19 (NSC847499), peposertib (NSC802822), ceralasertib (NSC780249), elimusertib (NSC800525), camonsertib (NSC841442), AZD-1390 (NSC803789), olaparib (NSC753686), talazoparib (NSC767125), ART-558 (NSC835418), sotorasib (NSC818433), MRTX-1133 (NSC836407), SN-38 (NSC673596), topotecan (NSC609699), etoposide (NSC141540), doxorubicin (NSC123127), gemcitabine (NSC613327), 5-fluorouracil (NSC19893), paclitaxel (NSC125973), vemurafenib (NSC761431), panobinostat (NSC761190), R-306465 (JNJ-16241199; NSC773264), adavosertib (NSC754352), TP-3654 (NSC805149), carboplatin (NSC241240), KSQ-4279 (NSC840948), and staurosporine (NSC755774) were obtained from the National Cancer Institute (NCI) Developmental Therapeutics Program Chemical Repository (34). The FDA-approved anticancer drug set is available from the NCI Developmental Therapeutics Program. […] The stock solutions were prepared in dimethyl sulfoxide (DMSO, Sigma-Aldrich, St. Louis, MO, cat. D2650) at 800-fold the tested concentration and stored at -70 degrees C prior to their use. All drugs and investigational agents were tested over a range starting from a high concentration at or near the clinical Cmax and decreasing in half-log increments. If the clinical Cmax for an agent had not been determined, the highest concentration tested was 10 microM.
2.3 Cell Culture. All cells were maintained in an incubator at 37 degrees C and 5% CO2 with 95% humidity. The PDC lines were cultured according to standard operating procedures established by the NCI PDMR. All PDCs were thawed and cultured in Matrigel-coated flasks prepared with a working solution of 1X Ham's F-12 nutrient mix, without supplementation (Invitrogen, cat. 11765054), 100 U/mL penicillin-streptomycin (Invitrogen, cat. 15140122), and 2.5% Matrigel (Corning Inc., cat. 354248) for the first three passages. The 857933-349-R-J2-PDC line was cultured in 6C/Colon 1B media, which includes advanced DMEM/F-12 (Thermo Fisher Scientific, cat. 12634028), 10 mM HEPES (Thermo Fisher Scientific, cat. 15630080), 1X GlutaMAX supplement (Thermo Fisher Scientific, cat. 35050061), 0.1 mg/mL primocin (InvivoGen, cat. ant-pm-2), 10% defined fetal bovine serum, heat inactivated (HyClone Laboratories Inc., cat. SH30070.03HI), 50% L-WRN conditioned media (ATCC, cat. CRL-3276), 1.25 mM N-Acetyl-L-cysteine (Sigma-Aldrich, cat. A9165), 10 mM nicotinamide (Sigma-Aldrich, cat. N0636), 1X B-27 supplement (Thermo Fisher Scientific, cat. 17504044), 1X N-2 supplement (Thermo Fisher Scientific, cat. 17502048), 10 microM Y-27632 dihydrochloride (Tocris Bioscience, cat. 1254), and 50 ng/mL human EGF recombinant protein (Thermo Fisher Scientific, cat. PHG0311). The 485176-168-R4-J1-PDC line was cultured in Panc media, which includes all 6C/Colon 1B media components plus 100 ng/mL human FGF-10 (Thermo Fisher Scientific, cat. 100-26), 500 nM SB-431542 (Selleckchem, cat. S1067), and gastrin (Tocris, cat. 3006).
[…]

[1] = second compound 0.0316 µM, first compound 0.0316 µM
[2] = second compound 0.0316 µM, first compound 0.1 µM
[3] = second compound 0.0316 µM, first compound 0.316 µM
[4] = second compound 0.0316 µM, first compound 1 µM
[5] = second compound 0.0316 µM, first compound 3.16 µM
[6] = second compound 0.0316 µM, first compound 10 µM
[7] = second compound 0.1 µM, first compound 0.0316 µM
[8] = second compound 0.1 µM, first compound 0.1 µM
[9] = second compound 0.1 µM, first compound 0.316 µM
[10] = second compound 0.1 µM, first compound 1 µM
[11] = second compound 0.1 µM, first compound 3.16 µM
[12] = second compound 0.1 µM, first compound 10 µM
[13] = second compound 0.316 µM, first compound 0.0316 µM
[14] = second compound 0.316 µM, first compound 0.1 µM
[15] = second compound 0.316 µM, first compound 0.316 µM
[16] = second compound 0.316 µM, first compound 1 µM
[17] = second compound 0.316 µM, first compound 3.16 µM
[18] = second compound 0.316 µM, first compound 10 µM
[19] = second compound 1 µM, first compound 0.0316 µM
[20] = second compound 1 µM, first compound 0.1 µM
[21] = second compound 1 µM, first compound 0.316 µM
[22] = second compound 1 µM, first compound 1 µM
[23] = second compound 1 µM, first compound 3.16 µM
[24] = second compound 1 µM, first compound 10 µM
[25] = second compound 3.16 µM, first compound 0.0316 µM
[26] = second compound 3.16 µM, first compound 0.1 µM
[27] = second compound 3.16 µM, first compound 0.316 µM
[28] = second compound 3.16 µM, first compound 1 µM
[29] = second compound 3.16 µM, first compound 3.16 µM
[30] = second compound 3.16 µM, first compound 10 µM
[31] = second compound 10 µM, first compound 0.0316 µM
[32] = second compound 10 µM, first compound 0.1 µM
[33] = second compound 10 µM, first compound 0.316 µM
[34] = second compound 10 µM, first compound 1 µM
[35] = second compound 10 µM, first compound 3.16 µM
[36] = second compound 10 µM, first compound 10 µM
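Note: spheroids exposed to compounds for seven days before reading.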
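Throughout, for viability, T/C: percent viability relative to DMSO vehicle control taken as 100%.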

Q: For C=CCn1c(=O)c2cnc(Nc3ccc(N4CCN(C)CC4)cc3)nc2n1-c1cccc(C(C)(C)O)n1 + Cc1cnc(CNC(=O)c2c(=O)c3ccc(N4CCCN(C)CC4)nc3n3c2sc2ccccc23)cn1, which IC50 (second compound 0.0316 µM) is on record?
A: 0.31 µM

Q: And the IC50 (second compound 0.1 µM)?
A: 0.545 µM

Q: And the IC50 (second compound 0.316 µM)?
A: 1.32 µM

Q: What about the IC50 (second compound 1 µM) of the same compound?
A: 2.27 µM

Q: And the IC50 (second compound 3.16 µM)?
A: 3.24 µM

Q: What about the IC50 (second compound 10 µM) of the same compound?
A: 2.78 µM

Q: What about the viability, T/C [1] of the same compound?
A: 86.8%

Q: What about the viability, T/C [2] of the same compound?
A: 70%

Q: What about the viability, T/C [3] of the same compound?
A: 51.6%

Q: What about the viability, T/C [4] of the same compound?
A: 35.2%

Q: What about the viability, T/C [5] of the same compound?
A: 29.1%

Q: And the viability, T/C [6]?
A: 34.2%

Q: What about the viability, T/C [7] of the same compound?
A: 89.2%

Q: And the viability, T/C [8]?
A: 71.9%

Q: And the viability, T/C [9]?
A: 54.1%

Q: And the viability, T/C [10]?
A: 45.5%

Q: And the viability, T/C [11]?
A: 38.5%

Q: And the viability, T/C [12]?
A: 36.7%

Q: And the viability, T/C [13]?
A: 85%

Q: What about the viability, T/C [14] of the same compound?
A: 80.2%

Q: What about the viability, T/C [15] of the same compound?
A: 63.5%

Q: And the viability, T/C [16]?
A: 52.4%

Q: What about the viability, T/C [17] of the same compound?
A: 43.6%

Q: What about the viability, T/C [18] of the same compound?
A: 34.2%

Q: What about the viability, T/C [19] of the same compound?
A: 74.7%

Q: What about the viability, T/C [20] of the same compound?
A: 74.2%

Q: What about the viability, T/C [21] of the same compound?
A: 64.8%

Q: And the viability, T/C [22]?
A: 57.3%

Q: And the viability, T/C [23]?
A: 46.2%

Q: What about the viability, T/C [24] of the same compound?
A: 44.8%

Q: What about the viability, T/C [25] of the same compound?
A: 82.8%

Q: What about the viability, T/C [26] of the same compound?
A: 64.5%

Q: What about the viability, T/C [27] of the same compound?
A: 65.5%

Q: And the viability, T/C [28]?
A: 62.4%

Q: What about the viability, T/C [29] of the same compound?
A: 51.4%

Q: And the viability, T/C [30]?
A: 39.6%

Q: And the viability, T/C [31]?
A: 72.9%

Q: And the viability, T/C [32]?
A: 73.4%

Q: What about the viability, T/C [33] of the same compound?
A: 70.8%

Q: What about the viability, T/C [34] of the same compound?
A: 60.8%

Q: And the viability, T/C [35]?
A: 49%

Q: And the viability, T/C [36]?
A: 42.3%

Q: With CCCS(=O)(=O)Nc1ccc(F)c(C(=O)c2c[nH]c3ncc(-c4ccc(Cl)cc4)cc23)c1F + Cc1cnc(CNC(=O)c2c(=O)c3ccc(N4CCCN(C)CC4)nc3n3c2sc2ccccc23)cn1 as the compound, how does the IC50 (second compound 0.0316 µM) read?
A: > 10 µM

Q: And the IC50 (second compound 0.1 µM)?
A: > 10 µM

Q: And the IC50 (second compound 0.316 µM)?
A: > 10 µM

Q: And the IC50 (second compound 1 µM)?
A: > 10 µM

Q: What about the IC50 (second compound 3.16 µM) of the same compound?
A: > 10 µM

Q: And the IC50 (second compound 10 µM)?
A: > 10 µM

Q: What about the viability, T/C [1] of the same compound?
A: 96.8%

Q: What about the viability, T/C [2] of the same compound?
A: 89.2%

Q: What about the viability, T/C [3] of the same compound?
A: 117%

Q: And the viability, T/C [4]?
A: 109%

Q: And the viability, T/C [5]?
A: 145%

Q: What about the viability, T/C [6] of the same compound?
A: 54.9%

Q: And the viability, T/C [7]?
A: 93.9%

Q: What about the viability, T/C [8] of the same compound?
A: 87.3%

Q: What about the viability, T/C [9] of the same compound?
A: 115%

Q: What about the viability, T/C [10] of the same compound?
A: 92%

Q: And the viability, T/C [11]?
A: 109%

Q: What about the viability, T/C [12] of the same compound?
A: 84.7%

Q: And the viability, T/C [13]?
A: 78.6%

Q: And the viability, T/C [14]?
A: 90.4%

Q: What about the viability, T/C [15] of the same compound?
A: 90%

Q: And the viability, T/C [16]?
A: 115%

Q: And the viability, T/C [17]?
A: 102%

Q: And the viability, T/C [18]?
A: 86.6%

Q: And the viability, T/C [19]?
A: 73.2%

Q: And the viability, T/C [20]?
A: 80.7%

Q: What about the viability, T/C [21] of the same compound?
A: 87.2%

Q: What about the viability, T/C [22] of the same compound?
A: 110%

Q: What about the viability, T/C [23] of the same compound?
A: 111%

Q: What about the viability, T/C [24] of the same compound?
A: 86%

Q: And the viability, T/C [25]?
A: 72.9%

Q: And the viability, T/C [26]?
A: 80.9%

Q: And the viability, T/C [27]?
A: 85.5%

Q: And the viability, T/C [28]?
A: 93.7%

Q: And the viability, T/C [29]?
A: 95.1%

Q: And the viability, T/C [30]?
A: 88.7%

Q: What about the viability, T/C [31] of the same compound?
A: 69.2%

Q: And the viability, T/C [32]?
A: 76.2%

Q: What about the viability, T/C [33] of the same compound?
A: 109%

Q: What about the viability, T/C [34] of the same compound?
A: 86.8%

Q: And the viability, T/C [35]?
A: 96%

Q: What about the viability, T/C [36] of the same compound?
A: 94.2%
